Test results: patent US20230165183A1, “METHODS AND COMPOSITIONS FOR IMPROVED SEED GROWTH” (Cyprus University of Technology, priority 2021, published 2023)
Where two headings read alike, the source gives them in different places.

Experiments:
tomato seeds = assay: Germination percentage of primed/coated tomato seeds five days after sowing; type: in vivo; settings: tomato seeds primed with melatonin (Mel 1=50 μM, Mel 2=100 μM), 5 DAS, vs unprimed seeds; p<0.05
Procedure: FIG. 4 depicts germination percentage five days after sowing (5 DAS) in tomato seeds coated (pre-treated) with melatonin concentrations (Mel 1=50 μM, Mel 2=100 μM) in comparison with unprimed seeds (non-treated) and hydrogel coated seeds (Hydro).
Tomato seeds were primed with melatonin at the following concentrations: 5 μM, 10 μM, 15 μM, 25 μM, 50 μM, 100 μM, 200 μM, and 300 μM. Priming was performed by soaking the seeds in the desired melatonin concentration, then vacuum-drying the seeds.
FIG. 4 depicts germination percentage five days after sowing (5 DAS) in tomato seeds coated pre-treated with melatonin concentrations (Mel 1=50 μM, Mel 2=100 μM) in comparison with unprimed seeds (Non-treated) and hydrogel coated seeds (Hydro).

Maize [1] = settings: cited from earlier work
Rice = settings: cited from earlier work
Wheat [2] = settings: cited from earlier work
Safflower = settings: Drought; cited from earlier work
Wheat [3] = settings: Salt; cited from earlier work
Chickpea = settings: Drought; cited from earlier work
Corn = settings: Salt; cited from earlier work
Milk Thistle = settings: Salt; cited from earlier work
Maize [4] = settings: Salt; cited from earlier work
Pigeon Pea = settings: Calcium; cited from earlier work
Pot Marigold = settings: Salt; cited from earlier work
Sorghum = settings: Drought; cited from earlier work

Compound: COc1ccc2[nH]cc(CCNC(C)=O)c2c1 [melatonin]
- germination percentage (tomato seeds): significantly increased germination percentage

Compound: O=C(O)c1ccccc1O [SA, salicyclic acid]
- Plant Response to SA (Maize [1]; Chilling): Enhanced antioxidant activity
- Plant Response to SA (Maize [1]; Lead): Increased nitric oxide content
- Plant Response to SA (Rice; Chilling): Enhanced antioxidant activity
- Plant Response to SA (Rice; Chromium): Increased chlorophyll content
- Plant Response to SA (Wheat [2]; Drought): Balanced nutrient uptake
- Plant Response to SA (Wheat [2]; Osmotic): Increased tolerance
- Plant Response to SA (Wheat [2]; Salinity): Decreased electrolyte leakage
- Plant Response to SA (Safflower): Enhanced antioxidant activity

Compound: gibberellin [GA]
- Plant Response to GA (Wheat [3]): Increased tolerance
- Plant Response to GA (Chickpea): Increased relative water content
- Plant Response to GA (Corn): Increased tissue water content
- Plant Response to GA (Milk Thistle): Alleviated salt stress
- Plant Response to GA (Maize [4]): Alleviated salt stress
- Plant Response to GA (Pigeon Pea): Increased germination
- Plant Response to GA (Pot Marigold): Increased tolerance
- Plant Response to GA (Sorghum): Increased CAT and APX activities
